Data as given in PMC8482815, “Targeting Host Glycolysis as a Strategy for Antimalarial Development” (Frontiers in Cellular and Infection Microbiology, 2021).
Values joined by “and” are separate entries in the source; they are usually repeats but may differ in a detail not shown here. Equal values may be shown once.

Test system: human erythrocytes
Test: Untargeted metabolomics and 13C-glucose tracing of enolase inhibitor treated erythrocytes
Format: cell-based
Settings: 0h
Description: Freshly collected erythrocytes were washed, resuspended to 10% hematocrit in buffer [25mM HEPES (pH 7.4), 120mM NaCl, 5.4mM KCl, 1.8mM CaCl2, and 1mM NaH2PO4], incubated for 1 hour at 37°C, then centrifuged at 2000xg for 5 minutes at 4°C, resuspended in fresh wash buffer to 30-40% hematocrit, and split into 210µL aliquots of packed erythrocytes. […] All samples were incubated at 37°C shaking at 500 RPM. Triplicate samples of supernatants and packed erythrocytes were collected at 0, 0.5, 1, and 6-hour intervals and snap-frozen in liquid N2.
RBC and media samples were extracted at 1:10 and 1:20 dilutions, respectively, in 5:3:2 MeOH : MeCN:H2O v/v/v, and supernatants analyzed on a Thermo Vanquish UHPLC coupled to a Thermo Q Exactive mass spectrometer, as extensively described ([Nemkov et al., 2015]; [Nemkov et al., 2017]). The extraction buffer was supplemented with 40uM 3-^13C lactate to allow absolute quantification of lactate isotopologues, including lactate generated via glycolysis ([1,2,3-^13C3] enriched) vs. the pentose phosphate pathway ([2,3-^13C2] enriched), as described ([Reisz et al., 2016]). Metabolite assignments, peak area integration and isotopologues distributions were determined using Maven (Princeton University) ([Nemkov et al., 2015]; [Nemkov et al., 2017]).
Data were auto-scaled and normalized to zero-hour time points. Metabolites were removed from the dataset if greater than 50% of the samples contained missing values or the relative standard deviation among replicates exceeded 25%. Additionally, data was filtered using the interquartile range to reduce near-constant values from the experiment by 5%.
A principal component analysis of preprocessed data was plotted with the 95% confidence interval minimum volume enclosing ellipsoid for each respective group (MetaboAnalyst, cluster, plotly). A two-way repeated measures analysis of variance (ANOVA) was performed with multiple comparisons corrected for using a false discovery rate p-value cutoff of 0.05. Metabolite-Pathway analysis was performed using the R package of MetaboAnalyst, as previously described ([Xia and Wishart, 2010]). Metabolite-Protein nodal analysis was performed using omicsnet.ca and as previously described ([Zhou and Xia, 2018]).

[1] = treated erythrocytes, one value per replicate sample, polarity +
[2] = treated erythrocytes, one value per replicate sample, polarity -
[3] = treated erythrocytes, replicate samples

SMILES: CC(C)(C)C(=O)OCOP(=O)(OCOC(=O)C(C)(C)C)C1CC(O)N(O)C1=O (stereo not shown) [POMSF]
- AMP level (metabolomics signal) (replicate samples): 1.48E+06 and 1.22E+06 and 1.21E+06
- ATP level (metabolomics signal) (replicate samples): 1.36E+04 and 1.16E+04 and 9.69E+03
- Adenine level (metabolomics signal) (replicate samples): 1.41E+05 and 1.42E+05 and 1.51E+05
- Cytosine level (metabolomics signal) (replicate samples): 4.50E+04 and 5.15E+04 and 1.27E+05
- L-alanine level (metabolomics signal) (replicate samples): 6.40E+06 and 7.71E+06 and 9.55E+06
- L-arginine level (metabolomics signal) (replicate samples): 1.10E+07 and 7.60E+06 and 2.77E+06
- L-asparagine level (metabolomics signal) (replicate samples): 1.89E+06 and 2.56E+06 and 2.42E+06
- L-aspartate level (metabolomics signal) (replicate samples): 1.71E+07 and 2.26E+07 and 2.06E+07
- L-cysteine level (metabolomics signal) (replicate samples): 7.54E+05 and 3.33E+05 and 7.35E+04
- L-glutamate level (metabolomics signal) (replicate samples): 1.88E+07 and 2.22E+07 and 2.32E+07
- L-glutamine level (metabolomics signal) (replicate samples): 2.62E+07 and 2.59E+07 and 2.28E+07
- L-histidine level (metabolomics signal) (replicate samples): 1.62E+06 and 1.23E+06 and 1.63E+06
- L-isoleucine level (metabolomics signal) (replicate samples): 3.04E+07 and 2.95E+07 and 2.26E+07
- L-leucine level (metabolomics signal) (replicate samples): 9.83E+07 and 1.22E+08 and 9.50E+07
- L-lysine level (metabolomics signal) (replicate samples): 3.76E+06 and 3.81E+06 and 3.28E+06
- L-methionine level (metabolomics signal) (replicate samples): 1.04E+07 and 1.29E+07 and 9.06E+06
- L-phenylalanine level (metabolomics signal) (replicate samples): 4.95E+06 and 5.41E+06 and 4.32E+06
- L-proline level (metabolomics signal) (replicate samples): 3.86E+07 and 3.62E+07 and 3.21E+07
- L-serine level (metabolomics signal) (replicate samples): 1.54E+06 and 1.82E+06 and 2.05E+06
- L-threonine level (metabolomics signal) (replicate samples): 2.66E+06 and 3.06E+06 and 2.69E+06
- L-tryptophan level (metabolomics signal) (replicate samples): 5.64E+06 and 3.84E+06 and 3.64E+06
- L-tyrosine level (metabolomics signal) (replicate samples): 1.11E+07 and 1.27E+07 and 8.94E+06
- L-valine level (metabolomics signal) (replicate samples): 9.15E+07 and 1.15E+08 and 1.39E+08
- dCMP level (metabolomics signal) (replicate samples): 3.07E+04 and 2.16E+04 and 2.21E+04
- dTMP level (metabolomics signal) (replicate samples): 1.28E+06 and 1.67E+06 and 9.76E+05
- glycine level (metabolomics signal) (replicate samples): 9.91E+05 and 9.30E+05 and 1.13E+06
- N-Acyl-D-aspartate (C06380) metabolite signal [1]: 2.50E+05 and 2.72E+05 (2×)
- Poly-gamma-D-glutamate (C05723) metabolite signal [1]: 1.72E+07 and 2.04E+07 and 1.59E+07
- D-Ribitol 5-phosphate (C01068) metabolite signal [2]: 2.00E+04 and 3.48E+04 and 2.09E+04
- D-glucono-1,5-lactone (C00198) metabolite signal [2]: 5.28E+05 and 7.59E+05 and 7.80E+05
- L-Noradrenaline (C00547) metabolite signal [2]: 2.74E+05 and 1.74E+05 and 9.62E+04
- Oxalosuccinate (C05379) metabolite signal [2]: 1.90E+05 and 1.88E+05 and 1.84E+05
- Pyridoxamine (C00534) metabolite signal [2]: 3.31E+04 and 3.01E+04 and 2.36E+04
- Thioredoxin disulfide (C00343) metabolite signal [2]: 8.00E+04 and 1.23E+05 and 3.03E+04
- 1-4-beta-D-Xylan (metabolite signal) [3]: 2.50E+05 and 2.94E+05 and 2.54E+05
- 2-Hydroxyglutarate/Citramalate (C02630) metabolite signal [3]: 2.14E+05 and 2.40E+05 and 2.04E+05
- 5-6-Dihydrothymine (C00906) metabolite signal [3]: 3.14E+05 and 3.41E+05 and 2.85E+05
- 5-10-Methenyltetrahydrofolate (metabolite signal) [3]: 2.33E+05 and 3.06E+05 and 3.71E+05
- 5-Hydroxyisourate (C11821) metabolite signal [3]: 2.99E+06 and 4.00E+06 and 4.10E+06
- 5-L-Glutamyl-taurine (metabolite signal) [3]: 1.28E+05 and 9.38E+04 and 1.74E+05
- 5-Oxoproline (metabolite signal) [3]: 1.06E+06 and 1.19E+06 and 1.05E+06
- (S)(+)-Allantoin (C02350) metabolite signal [3]: 3.96E+04 and 4.19E+04 and 4.78E+04
- Allantoate (C00499) metabolite signal [3]: 5.92E+05 and 4.20E+05 and 1.48E+05
- Ascorbate (metabolite signal) [3]: 1.27E+05 and 1.55E+05 and 1.07E+05
- CMP-N-acetylneuraminate (metabolite signal) [3]: 3.49E+04 and 6.40E+04 and 4.41E+04
- Carnosine (metabolite signal) [3]: 1.74E+05 and 2.21E+05 and 3.49E+05
- Citrate (C00158) metabolite signal [3]: 3.66E+04 and 3.31E+04 and 3.64E+04
- Creatine (metabolite signal) [3]: 2.22E+08 and 2.62E+08 and 3.28E+08
- Creatinine (metabolite signal) [3]: 3.21E+06 and 3.75E+06 and 4.22E+06
- Cys-Gly (metabolite signal) [3]: 2.17E+06 and 2.00E+06 and 1.46E+06
- D-Glucosamine (metabolite signal) [3]: 1.02E+05 and 8.07E+04 and 1.48E+05
- D-Glucose (C00031) metabolite signal [3]: 6.82E+06 and 7.47E+06 and 6.93E+06
- D-Ribose (C00121) metabolite signal [3]: 1.55E+05 and 2.41E+05 and 2.38E+05
- Dehydroascorbate (metabolite signal) [3]: 1.97E+04 and 1.24E+04 and 6.28E+03
- Dihydrofolate (metabolite signal) [3]: 2.52E+06 and 2.25E+06 and 7.96E+05
- Dimethylglycine (metabolite signal) [3]: 8.88E+05 and 1.01E+06 and 1.45E+06
- Diphosphate (C00013) metabolite signal [3]: 6.51E+03 and 2.62E+03 and 7.12E+02
- Fumarate (C00122) metabolite signal [3]: 1.66E+05 and 1.93E+05 and 1.68E+05
- Glutathione (C00051) metabolite signal [3]: 1.67E+08 and 1.41E+08 and 9.66E+07
- Glutathione disulfide (metabolite signal) [3]: 3.84E+05 and 6.78E+05 and 4.93E+05
- Hypoxanthine (C00262) metabolite signal [3]: 1.47E+05 and 1.29E+05 and 1.33E+05
- IMP (C00130) metabolite signal [3]: 7.71E+04 and 2.73E+04 and 2.17E+04
- Inosine (C00294) metabolite signal [3]: 9.47E+04 and 1.13E+05 and 1.20E+05
- L-Citrulline (metabolite signal) [3]: 1.15E+06 and 1.84E+06 and 2.36E+06
- L-Homoserine (metabolite signal) [3]: 2.11E+05 and 2.32E+05 and 1.47E+05
- Lactate (C01432) metabolite signal [3]: 7.24E+06 and 8.30E+06 and 8.24E+06
- Malate (C00149) metabolite signal [3]: 5.52E+05 and 5.73E+05 and 5.31E+05
- Mannitol (C00392) metabolite signal [3]: 8.67E+04 and 1.22E+05 and 1.45E+05
- N-Acetylneuraminate (metabolite signal) [3]: 2.28E+04 and 3.32E+04 and 3.78E+04
- N-Glycoloyl-neuraminate (metabolite signal) [3]: 2.22E+05 and 2.27E+05 and 1.72E+05
- NAD+ (C00003) metabolite signal [3]: 4.26E+04 and 2.68E+05 and 2.34E+05
- Nicotinamide (C00153) metabolite signal [3]: 1.57E+07 and 2.35E+07 and 2.66E+07
- Ornithine (metabolite signal) [3]: 2.19E+06 and 2.53E+06 and 2.49E+06
- Oxaloacetate (C00036) metabolite signal [3]: 6.97E+04 and 6.01E+04 and 4.98E+04
- Phosphoserine (metabolite signal) [3]: 4.87E+04 and 2.38E+05 and 2.25E+05
- Putrescine (metabolite signal) [3]: 4.73E+04 and 6.21E+04 and 7.27E+04
- Pyridoxal (C00250) metabolite signal [3]: 5.83E+04 and 4.46E+04 and 6.28E+04
- Pyruvate (C00022) metabolite signal [3]: 1.18E+06 and 1.33E+06 and 1.20E+06
- S-Glutathionyl-L-cysteine (metabolite signal) [3]: 1.80E+05 and 2.28E+05 and 9.16E+04
- Sedoheptulose 1-phosphate (C06222) metabolite signal [3]: 5.23E+04 and 6.25E+04 and 4.82E+04
- Spermidine (metabolite signal) [3]: 1.16E+07 and 9.80E+06 and 1.05E+07
- Spermine (metabolite signal) [3]: 9.70E+06 and 8.73E+06 and 7.99E+06
- Succinate (C00042) metabolite signal [3]: 9.79E+04 and 1.14E+05 and 1.10E+05
- Thymidine (C00214) metabolite signal [3]: 2.50E+04 and 1.31E+04 and 1.15E+04
- UDP (C00015) metabolite signal [3]: 6.45E+05 and 4.64E+05 and 1.60E+05
- UDP-N-acetyl-D-glucosamine (metabolite signal) [3]: 3.60E+04 and 3.50E+04 and 3.40E+04
- UDP-glucose (C00029) metabolite signal [3]: 1.12E+05 and 1.15E+05 and 9.19E+04
- Urate (C00366) metabolite signal [3]: 4.94E+04 and 4.14E+04 and 3.72E+04
- Xanthine (C00385) metabolite signal [3]: 2.85E+05 and 3.63E+05 and 3.38E+05
- alpha-D-Glucosamine 1-phosphate (metabolite signal) [3]: 1.10E+06 and 1.63E+06 and 3.07E+06
- alpha-D-Ribose 1-phosphate (C00620) metabolite signal [3]: 1.48E+05 and 1.44E+05 and 1.26E+05
- gamma-Glutamyl-gamma-aminobutyrate (metabolite signal) [3]: 8.69E+04 and 8.91E+04 and 1.07E+05
- gamma-L-Glutamyl-D-alanine (metabolite signal) [3]: 2.41E+04 and 3.08E+04 and 2.52E+04
- gamma-L-Glutamyl-L-cysteine (metabolite signal) [3]: 4.83E+04 and 5.61E+04 and 6.44E+03
